Reference: ChEMBL document CHEMBL1201862, “PubChem BioAssay data set” (2004)
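Results reflect a 48-hour exposure of cells in 96-well plates to compound at five concentrations. Here, GI50 denotes the concentration required for 50% inhibition of growth.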 Activity calls are given as the source filed them. Cut-off read from the data, not from the text of the source: active = GI50 up to about 1.1 µM and inactive = higher.

Assays:
Assay in all cases: inhibition of tumour cell growth, NCI panel, 48 h
SF-539 = test system: SF-539
K562 = test system: K562
OVCAR-5 = test system: OVCAR-5
786-0 = test system: 786-0
MCF7 = test system: MCF7
HCT-15 = test system: HCT-15
SF-268 = test system: SF-268
Malme-3M = test system: Malme-3M
OVCAR-3 = test system: OVCAR-3
IGROV-1 = test system: IGROV-1
PC-3 = test system: PC-3
SF-295 = test system: SF-295
OVCAR-4 = test system: OVCAR-4
KM12 = test system: KM12
MDA-MB-231 = test system: MDA-MB-231
HT-29 = test system: HT-29
NCI/ADR-RES = test system: NCI/ADR-RES
SK-MEL-28 = test system: SK-MEL-28
NCI-H460 = test system: NCI-H460
SR = test system: SR
CCRF-CEM = test system: CCRF-CEM
M14 = test system: M14
NCI-H23 = test system: NCI-H23
ACHN = test system: ACHN
NCI-H226 = test system: NCI-H226
SK-MEL-2 = test system: SK-MEL-2
HOP-62 = test system: HOP-62
MDA-MB-435 = test system: MDA-MB-435
SW-620 = test system: SW-620
SNB-75 = test system: SNB-75
SNB-19 = test system: SNB-19
HL-60 = test system: HL-60
HCC 2998 = test system: HCC 2998
RXF 393 = test system: RXF 393
NCI-H522 = test system: NCI-H522
U-251 = test system: U-251
HOP-92 = test system: HOP-92
DU-145 = test system: DU-145
A498 = test system: A498
SN12C = test system: SN12C
A549 = test system: A549
OVCAR-8 = test system: OVCAR-8
Hs-578T = test system: Hs-578T
T47D = test system: T47D
COLO 205 = test system: COLO 205
BT-549 = test system: BT-549
SK-OV-3 = test system: SK-OV-3
SK-MEL-5 = test system: SK-MEL-5
UO-31 = test system: UO-31
CAKI-1 = test system: CAKI-1
MDA-N = test system: MDA-N
RPMI-8226 = test system: RPMI-8226
TK-10 = test system: TK-10
LOX IMVI = test system: LOX IMVI
HCT-116 = test system: HCT-116
UACC-257 = test system: UACC-257
EKVX = test system: EKVX
UACC-62 = test system: UACC-62

Measured: GI50

CC(=N\N)/C(C)=N/N=C(C)/C(C)=N/N
> 100 µM: HCT-15
inactive: SF-539 > 100 µM | K562 > 10 µM | OVCAR-5 > 100 µM | 786-0 > 100 µM | MCF7 > 100 µM | SF-268 > 100 µM | Malme-3M > 100 µM | OVCAR-3 > 100 µM | IGROV-1 > 100 µM | PC-3 > 100 µM | SF-295 > 100 µM | OVCAR-4 > 100 µM | KM12 > 100 µM | MDA-MB-231 > 100 µM | HT-29 > 100 µM | NCI/ADR-RES > 100 µM | SK-MEL-28 > 100 µM | NCI-H460 > 100 µM | SR > 100 µM | CCRF-CEM > 100 µM | M14 > 100 µM | NCI-H23 > 100 µM | ACHN > 100 µM | NCI-H226 > 100 µM | SK-MEL-2 > 100 µM | HOP-62 > 100 µM | MDA-MB-435 > 100 µM | SW-620 > 100 µM | SNB-75 > 100 µM | SNB-19 > 100 µM | HL-60 > 100 µM | HCC 2998 > 100 µM | RXF 393 > 100 µM | NCI-H522 > 100 µM | U-251 > 100 µM | HOP-92 > 100 µM | DU-145 > 100 µM | A498 > 100 µM | SN12C > 100 µM | A549 > 100 µM | OVCAR-8 > 100 µM | Hs-578T > 100 µM | T47D > 100 µM | COLO 205 > 100 µM | BT-549 > 100 µM | SK-OV-3 > 100 µM | SK-MEL-5 > 100 µM | UO-31 > 100 µM | CAKI-1 > 100 µM | MDA-N > 100 µM | RPMI-8226 > 100 µM | TK-10 > 100 µM | LOX IMVI > 100 µM | HCT-116 > 100 µM | UACC-257 > 100 µM | EKVX > 100 µM

CC(C)=CCC/C(C)=C/CC/C(C)=C/CC/C(=C/CC/C(C)=C\CC/C(C)=C/CC/C(C)=C/CC/C(C)=C/Cc1cc(O)ccc1O)CO
active: SF-539 0.824 µM | M14 0.681 µM | NCI-H23 0.979 µM | MDA-MB-435 1.12 µM | RXF 393 0.483 µM
7.11 µM: HCT-15
inactive: K562 17.7 µM | OVCAR-5 25.4 µM | UACC-62 1.18 µM | 786-0 2.98 µM | MCF7 2.55 µM | SF-268 2.67 µM | Malme-3M 2.7 µM | OVCAR-3 4.42 µM | IGROV-1 2.86 µM | PC-3 4.2 µM | SF-295 1.84 µM | OVCAR-4 2.51 µM | KM12 1.67 µM | MDA-MB-231 27.3 µM | HT-29 4.52 µM | NCI/ADR-RES 4.51 µM | SK-MEL-28 2.29 µM | NCI-H460 9.57 µM | SR 3.26 µM | CCRF-CEM 3.56 µM | ACHN 12.4 µM | NCI-H226 2.29 µM | SK-MEL-2 3.32 µM | HOP-62 11.3 µM | SW-620 8.71 µM | SNB-75 4.02 µM | SNB-19 7.1 µM | HL-60 3.15 µM | HCC 2998 9.93 µM | NCI-H522 1.57 µM | U-251 3.08 µM | HOP-92 9.59 µM | DU-145 32.6 µM | A498 5.33 µM | SN12C 17.6 µM | A549 4.14 µM | OVCAR-8 3.75 µM | Hs-578T 2.51 µM | T47D 6.05 µM | COLO 205 2.28 µM | BT-549 3.6 µM | SK-OV-3 10.9 µM | SK-MEL-5 2.48 µM | UO-31 7.98 µM | CAKI-1 1.71 µM | MDA-N 3.21 µM | RPMI-8226 1.82 µM | TK-10 6.61 µM | LOX IMVI 2.94 µM | HCT-116 2.84 µM | UACC-257 3.07 µM | EKVX 12.1 µM
